Here are results for 1 compound from patent US20250339409A1, “USES OF PAN BET INHIBITORS” (VYNE THERAPEUTICS INC., priority 2021, published 2025).

Each structure is given as a SMILES string. Values joined by “and” are separate entries in the source; they are usually repeats but may differ in a detail not shown here. Equal values may be shown once.

One assay concerns TRP-1. Description: RHE vitiligo model: melanocyte localization after TRP-1 immunostaining. Type of assay: cell-based, human. The settings on record: for Mean per RHE (%): RHE1-3. The procedure:
TRP-1 (tyrosinase related protein-1) is a melanocyte specific protein and a member of the tyrosinase gene family which also includes tyrosinase. It is very often used as specific marker of melanocytes. To visualize and quantify the melanocytes within the epidermis, sections of epidermis (6 μm thick) prepared from epidermis embedded in paraffin are used for TRP-1 immunostaining.
After deparaffination and re-hydration, antigen unmasking is performed by heating in citrate ph6 buffer. Samples are then saturated with goat serum, in order to avoid unspecific labelling.
Samples are incubated overnight, at 4° C., with a primary antibody raised against human TRP-1 (Abcam; Ab235447). After washing, the samples are incubated (for 30 minutes, at room temperature) with a secondary antibody anti-rabbit coupled to Alexa Fluor 488 dye (Thermo Fisher Scientific; A-11008). Samples are then incubated with DAPI or 4′,6′-diamidino-2-phenylindole (Thermo Fisher Scientific, D1306), a fluorescent molecule able of binding to the adenine and thymine bases of DNA and slides are mounted with specific medium, before taking the images. For each tissue/sample, 1 slide section is used to make 3 images. Images are taken using a Nikon Eclipse (Ni-E) photomicroscope coupled to a numerical camera (DS-Ri2). Quantification of the protein is performed with NIS-Element AR software (Nikon). The detection thresholds are firstly determined, using the most marked slices, in order to avoid saturation of detection. For each image, a region of interest (ROI) is delimited manually (including only the basal layers of epidermis which are supposed to contain the melanocytes) and its surface was measured. The software then measures the marked area within the delimited area, in number of pixels. The mean intensity of the marked surface multiplied by the “marked surface” determines the staining for the given ROI. This value is then normalized for a given surface by dividing the staining value by the surface of the ROI.
Formulations containing four doses of BETi1 the BETi1 vehicle (placebo), were evaluated in RHE TNF-α/IFN-γ vitiligo model as described in Experimental section Method G and representative images of RHE after TRP-1 staining are shown in FIG. 7A and respective quantification with and without normalization are shown in Table 19 and Table 20 and FIGS. 7B and FIG. 7C respectively. The stimulation with the cytokine cocktail (TNF-α and IFN- ? ) in accordance with Part A and B, reduced the expression of TRP-1 and thus the abundance of melanocytes in the basal layers of the RHE, confirming the melanocytorhagy. In the model, stimulated treated with the vehicle induced a significant […] of TRP-1 abundance as compared to the stimulated untreated control. Without being bound by any theory the barrier effect provided by petrolatum in the vehicle, which increases skin hydration, has some effect on retention of melanocytes in the basal layer. […] A dose response could clearly be observed with the BETi1 formulation, with a tendency to the increase for the dose of 0.1% and with the two last concentrations being not significant. The effects of the ruxolitinib cream at 1% could not be assessed given that the sections have detached from the glass slides during the immunostaining process (probably without being bound by any theory may be due to the bad structure of the epidermis).

For assay [1], the system named is melanin in basal layers of RHE. Kind of assay: RHE vitiligo model: melanin content and localization by Fontana Masson staining. It is filed as cell-based, human. From the text: Melanin deposition on 6 μm paraffin sections of each epidermis (n=3) are highlighted through staining with Fontana Masson reagents (VWR—VWRK641295, VWRK641311; Klinipath—641215). Slides are mounted with specific medium and examined with a Nikon Eclipse (Ni-E) photomicroscope coupled to a numerical camera (DS-Ri2)
For the melanin quantification, three images of each epidermis are taken and analysed using the NIS-Element AR software (Nikon). For the quantification of melanin, a region of interest (ROI) is first defined and measured in the epidermis. This region includes only the basal layers. Then, two measures are taken by the software in this ROI. The first one represents the labelled surface on the ROI, and thus the area occupied by the melanin in the ROI. The second one corresponds to the global intensity of the staining in the ROI, reflecting a lighter or darker melanin. The relative quantification of melanin in the ROI is then performed by multiplying these two measures. To normalize the results to a given surface, this value was then divided by the surface of the ROI.
Formulations containing four doses of BETi1 the BETi1 vehicle (placebo), were evaluated in RHE TNF-α/IFN-γ vitiligo model as described Experimental section Method F and representative images of […] epidermis sections are shown in FIG. 6A-G. The images according to this method are consistent with the images with H/E stained epidermis sections and shown in FIG. 4A-H.
Results of the quantification of melanin in basal layers of epidermis stimulated or not with the cytokine cocktail to induce melanocytorhagy and treated with the test items are shown in FIG. 6H. The results are expressed with normalization to the surface of region of interest (ROI) corresponding to the 2-3 basal layers of the RHEs. […] As for TRP-1 staining, the effects of the ruxolitinib cream at 1% on melanin content could not be assessed given that the sections have detached from the glass slides during the staining process (probably without being bound by any theory may be due to the bad structure of the epidermis).

Where [2] appears, read: BETi1 0.001%, stimulated RHE, without normalization to ROI.
[3] abbreviates: BETi1 1%, stimulated RHE, with normalization to ROI.
The mark [4] stands for this setting: BETi1 1%, stimulated RHE, without normalization to ROI.
[5] abbreviates: BETi1 10.001% [sic], stimulated RHE, with normalization to ROI.

Take `Cn1cc(-c2cccc(O)c2Oc2ccccc2)c2cc[nH]c2c1=O` [BETi1]: the “Mean per condition (%)” value in the assay with TRP-1 (setting [2]) is 24%; in the assay on TRP-1 (BETi1 0.01%, stimulated RHE, with normalization to ROI), 15%; in the assay with TRP-1 (BETi1 0.01%, stimulated RHE, without normalization to ROI), 20%; in the assay with TRP-1 (BETi1 0.1%, stimulated RHE, with normalization to ROI), 92%; in the assay with TRP-1 (BETi1 0.1%, stimulated RHE, without normalization to ROI), 120%; with TRP-1 (setting [3]), 149%. Besides, the “Mean per condition (%)” value with TRP-1 (setting [4]) worked out at 192%; with TRP-1 (setting [5]) it was 17%. Moreover, the “Mean per RHE (%)” value with TRP-1 (setting [2]) is 21.6% and 27.0% and 22.1%; in the assay with TRP-1 (setting [3]), 169% and 120% and 158%; in the assay with TRP-1 (setting [4]), 220.8% and 151.1% and 203.4%; in the assay on TRP-1 (setting [5]), 18% and 19% and 14%. Further, in the assay on TRP-1 (BETi1 formulation at 1%, stimulated RHE), the “TRP-1 in the basal layers” value is listed as “TRP-1 is significantly increased in the basal layers”. Moreover, the “TRP-1 % staining relative to stimulated control, Mean per RHE (%)” value with TRP-1 (Stimulated + BETi1 0.001%) was 6% and 8%. The “TRP-1 % staining relative to stimulated control, Mean per condition (%)” value with TRP-1 (Stimulated + BETi1 0.001%) was 7%; with TRP-1 (Stimulated + BETi1 0.01%), 30%; in the assay on TRP-1 (Stimulated + BETi1 0.1%), 227%; in the assay on TRP-1 (Stimulated + BETi1 1%), 292%. In assay [1] (basal layers of RHE), the “melanin retained relative to unstimulated control” value is “approximately 75%”. Besides, the “residual melanin levels, % of stimulated/untreated control” value in assay [1] (basal layers of RHE) is listed as “about 367%”. Further, the “melanin content in the basal layers” value in assay [1] (stimulated RHE, vs vehicle) is given as “significantly increase the melanin content in the basal layers”.
